From ChEMBL document CHEMBL3994613, “Diaryltriazenes as antibacterial agents against methicillin resistant Staphylococcus aureus (MRSA) and Mycobacterium smegmatis” (Eur J Med Chem, 2017) come the findings set out here.

Values after ≈ are worked out from the molar mass of the structure shown. A value given as a limit tells only on which side of the number the result lay.

One assay concerns Staphylococcus aureus. Put plainly: Antibacterial activity against methicillin-resistant Staphylococcus aureus USA300 by broth microdilution method. On the technique in general: Dilution methods test growth across graded concentrations, often in twofold steps.
Assay [1] deals with Mycolicibacterium smegmatis. Put plainly: Antimycobacterial activity against Mycobacterium smegmatis MC2 155 after 3 days by broth macrodilution method. The class given is functional. The settings on record: str. MC2 155, 72 h.

For `O=C(N[C@H](CO)[C@H](O)c1ccc([N+](=O)[O-])cc1)C(Cl)Cl` [CHLORAMPHENICOL], the MIC against Staphylococcus aureus lay within 4 to 32 µg/mL (≈ 12.4 to 99 µM). Compound `O=C(O)c1cn(C2CC2)c2cc(N3CCNCC3)c(F)cc2c1=O` [CIPROFLOXACIN] yielded a minimum inhibitory concentration (MIC) with Staphylococcus aureus of 0.125 to 64 µg/mL (≈ 0.377 to 193 µM). As for `CCC[C@@H]1C[C@@H](C(=O)N[C@@H]([C@H]2O[C@H](SC)[C@H](O)[C@@H](O)[C@H]2O)[C@H](C)Cl)N(C)C1` [CLINDAMYCIN], the minimal inhibitory concentration (MIC) against Staphylococcus aureus was in the range of 0.125 to 64 µg/mL (≈ 0.294 to 151 µM). In assay [1], `N[C@@H]1CONC1=O` [CYCLOSERINE] had an MIC of 105 µg/mL (≈ 1030 µM). With `CC[C@H]1OC(=O)[C@H](C)[C@@H](O[C@H]2C[C@@](C)(OC)[C@@H](O)[C@H](C)O2)[C@H](C)[C@@H](O[C@@H]2O[C@H](C)C[C@H](N(C)C)[C@H]2O)[C@](C)(O)C[C@@H](C)C(=O)[C@H](C)[C@@H](O)[C@]1(C)O` [ERYTHROMYCIN], the minimal inhibitory concentration (MIC) in the assay on Staphylococcus aureus was 8 to 64 µg/mL (≈ 10.9 to 87.2 µM). `COc1c(N2CCNC(C)C2)c(F)cc2c(=O)c(C(=O)O)cn(C3CC3)c12` (stereo not given) [GATIFLOXACIN] displayed a minimal inhibitory concentration (MIC) with Staphylococcus aureus of 0.5 to 4 µg/mL (≈ 1.33 to 10.7 µM). As to `NC[C@H]1O[C@H](O[C@H]2[C@H](O)[C@@H](O[C@H]3O[C@H](CO)[C@@H](O)[C@H](N)[C@H]3O)[C@H](N)C[C@@H]2N)[C@H](O)[C@@H](O)[C@@H]1O` [KANAMYCIN], the minimal inhibitory concentration (MIC) in the assay with Staphylococcus aureus is above 64 µg/mL. Regarding `C[C@H]1COc2c(N3CCN(C)CC3)c(F)cc3c(=O)c(C(=O)O)cn1c23.C[C@H]1COc2c(N3CCN(C)CC3)c(F)cc3c(=O)c(C(=O)O)cn1c23.O` [LEVOFLOXACIN], the minimal inhibitory concentration (MIC) with Staphylococcus aureus was 0.25 to 32 µg/mL. Turning to `CC(=O)NC[C@H]1CN(c2ccc(N3CCOCC3)c(F)c2)C(=O)O1` [LINEZOLID], in the assay on Staphylococcus aureus, the MIC lay in the range of 2 to 4 µg/mL (≈ 5.93 to 11.9 µM). The compound `C/C(=C\C(=O)OCCCCCCCCC(=O)O)C[C@@H]1OC[C@H](C[C@@H]2O[C@H]2[C@@H](C)[C@H](C)O)[C@@H](O)[C@H]1O` [MUPIROCIN] displayed a minimal inhibitory concentration (MIC) in the assay with Staphylococcus aureus of 0.5 to 64 µg/mL (≈ 0.999 to 128 µM). As to `Cc1onc(-c2ccccc2)c1C(=O)N[C@@H]1C(=O)N2[C@@H]1SC(C)(C)[C@@H]2C(=O)O` [OXACILLIN], the MIC was 16 to 32 µg/mL (≈ 39.9 to 79.7 µM) against Staphylococcus aureus and 32 µg/mL (≈ 79.7 µM) in assay [1].

In the case of `NC[C@H]1O[C@H](O[C@H]2[C@H](O)[C@@H](O[C@H]3O[C@H](CO)[C@@H](O)[C@H](N)[C@H]3O)[C@H](N)C[C@@H]2N)[C@H](N)C[C@@H]1O` [TOBRAMYCIN], in the assay on Staphylococcus aureus, the MIC lay within 0.5 to 2 µg/mL (≈ 1.07 to 4.28 µM). Consider `CN[C@H](CC(C)C)C(=O)N[C@H]1C(=O)N[C@@H](CC(N)=O)C(=O)N[C@H]2C(=O)N[C@H]3C(=O)N[C@H](C(=O)N[C@H](C(=O)O)c4cc(O)cc(O)c4-c4cc3ccc4O)[C@H](O)c3ccc(c(Cl)c3)Oc3cc2cc(c3O[C@@H]2O[C@H](CO)[C@@H](O)[C@H](O)[C@H]2O[C@H]2C[C@](C)(N)[C@H](O)[C@H](C)O2)Oc2ccc(cc2Cl)[C@H]1O` [VANCOMYCIN], for which the results for the MIC (in the assay with Staphylococcus aureus; in assay [1]) were 0.25 to 2 µg/mL (≈ 0.173 to 1.38 µM) and 45 µg/mL (≈ 31.1 µM), respectively.

What is called MIC is the lowest concentration that inhibits growth of the organism.
